Experimental data as given in patent publication US10947203B2, “1,4,5-substituted 1,2,3-triazole analogues as antagonists of the pregnane X receptor” (ST. JUDE CHILDREN'S RESEARCH HOSPITAL, priority 2016, dated 2021).

Experiments:
[1] = tested on: hPXR-mediated CYP3A4 promoter reporter activity; test: CYP3A4 promoter reporter activity in hPXR-CYP3A4-luc reporter mice (bioluminescence imaging); format: in vivo, mouse; details: RIF 10 mg/kg plus test compound 150 mg/kg every 24 h for 2 days; imaging 10 h after last treatment; FIG. 4
Protocol: Individual mouse received 3 rounds of sequential treatment of vehicle control (Vehicle), RIF (10 mg/kg) and RIF (10 mg/kg) plus the test compound (150 mg/kg) every 24 h for 2 days, respectively, with a washout period of 72-hour between two rounds of treatment. The luciferase activity in these reporter mice was recorded by bioluminescence imaging 10 h after the last treatment of each round, and the induction of CYP3A4 promoter reporter activity was calculated as described in Examples. Each data point represents the induction of CYP3A4 promoter reporter activity by the treatment in an individual mouse, and dos lines indicate the CYP3A4 promoter reporter activity change in individual mouse after following round of treatment. p values are indicated between the two treatment compared by paired t test.
10 hours after the last treatment of each round, the mice were imaged as described above. Uniform regions of interest were drawn around the liver, and total photon flux was analyzed with Living Image 3.2 software (Xenogen). The induction of CYP3A4-luc reporter activity was calculated using the imaging from the same mouse as follows: induction rate=total photon flux (after treatment)/total photon flux (before treatment).

[2] = tested on: hPXR-mediated increase in CYP3A expression; test: liver Cyp3a11 mRNA and CYP3A protein in hPXR-tg mice; format: in vivo, mouse; details: RIF 10 mg/kg plus test compound 200 mg/kg, 72 h, FIGS. 3A-3C
Protocol: Briefly, mouse liver Cyp3a11 mRNA was analyzed by real-time PCR in hPXR-tg mice treated with vehicle control (Vehicle), RIF (10 mg/kg) or RIF (10 mg/kg) plus test compound (200 mg/kg) for 72 h. Each data point represents the level of Cyp3a11 mRNA (FIG. 3A) or protein (FIG. 3B) in an individual mouse; lines indicate the mean value for 3-7 mice per group.
hPXR-tg mice were generated previously (Xie et al., 2000). Five mice in each group were dosed orally with vehicle control or 10 mg/kg RIF, every 24 h for three days. Eight hours after the last dose, the animals were euthanized by C02 and liver tissues were harvested. A piece of each liver was preserved in RNAlater solution (Invitrogen) at 4° C. for mRNA isolation. The remaining tissue was instantly frozen in liquid nitrogen and stored at −80° C. for total protein extraction. […]

[3] = tested on: primary human hepatocytes (PHHs); test: paclitaxel metabolism in primary human hepatocytes; format: cell-based; details: 1 μM PTX with 10 μM test compound; 24 and 48 hr; FIGS. 1B, 1C
Protocol: (§1) The concentrations of 1′-OH MDZ (MDZ metabolite) in the media of each pretreatment condition were determined using LC/MS/MS as described in the Examples. […] PHHs were also treated with 1 μM of PTX in the absence and presence of 10 μM of the test compound, and then the concentrations of major PTX metabolites, 3-OH PTX (by CYP3A4) and 6α-OH PTX (by CYP2C8), were determined using LC/MS/MS at 24 hr and 48 hr of treatment, respectively.
(§2) Midazolam and 1-OH midazolam were from BD Gentest. Midazolam-D4 maleate (internal standard, IS) was from Cerilliant; Paclitaxel and 3′-p-hydroxypaclitaxel were from Sigma; and 6u-hydroxy Paclitaxel was from Cayman Chemical. 100 μl of reaction medium at each different time point was collected and 200 μl of acetonitrile containing IS was added. This solution was then vigorously mixed for 10 min and centrifuged at 10,000 rpm for 10 min. Calibration and quality control samples were prepared. 5 μl of the samples was injected onto a Waters Acquity UPLC BEH C18 column (2.1x 50 mm, 1.7 μm), using a Waters Acquity UPLC system. Chromatographic separation was performed by gradient elution at a constant flow rate of 1 mL/min for 15 min. The gradient consisted of 0.1% formic acid water (mobile phase A) and methanol (mobile phase B). […] Nitrogen was applied as curtain, collision and drying gas at 60 psi. […]

[4] = tested on: primary human hepatocytes (PHHs); test: midazolam metabolism in primary human hepatocytes pretreated with hPXR agonist; format: cell-based; details: 10 μM test compound; 72 hr pretreatment with DMSO, 1.6 μM RIF, 0.5 or 5 μM PTX; then 3.3 μM MDZ 4 h; FIG. 1A
Protocol: as §1, §2

[5] = tested on: RIF-induced metabolism of the anesthetic (CYP3A11); test: loss of righting reflex (LORR) assay in hPXR-tg mice; format: in vivo, mouse; details: RIF 10 mg/kg plus test compound 200 mg/kg every 24 h for three days, FIG. 5
Protocol: Loss of righting reflex (LORR) duration was recorded as described in Examples to measure metabolism of the anesthetic ([…]) in hPXR-tg, mice before and after treatment with vehicle, RIF, and RIF plus the test compound as indicated. Each data point represents LORR duration in an individual mouse; lines indicate LORR duration change in individual mouse before and after treatment. P values indicate comparison of values by paired t test.
Mice were intraperitoneally injected with 250 mg/kg of 2,2,2-tribromoethanol, which is metabolically cleared only via mouse CYP3A11. After the mice lost their righting reflex, they were placed on their backs under a heat lamp. The duration of LORR was measured as the time from the start of LORR to recovery (i.e., when mice could right themselves after being placed on their backs twice within 1 min). A baseline LORR duration was established for each mouse at the administered dose of 2,2,2-tribromoethanol. […] The paired Student's t-test was used to compare LORR duration between baseline and after treatment. A P value <0.05 was considered to indicate a significant difference between compared groups.

## COc1ccc(OC)c(-n2nnc(S(=O)(=O)c3ccc(C(C)(C)C)cc3)c2C)c1 [4-((4-(tert-butyl)phenyl)sulfonyl)-1-(2,5-dimethoxyphenyl)-5-methyl-1H-1,2,3-triazole]
[1]
  RIF-induced expression of the reporter under the control of the CYP3A4 promoter: significantly reduced
[2]
  hPXR-mediated increase in CYP3A expression (liver Cyp3a11 mRNA, CYP3A protein): inhibits the hPXR-mediated increase in CYP3A expression
[3]
  metabolism of PTX to 3-OH PTX and 6α-OH PTX: effectively blocked
[4]
  metabolism of MDZ (1′-OH MDZ concentration in media): essentially blocked
[5]
  RIF-induced metabolism of the anesthetic, as determined by LORR duration: significantly inhibited
